Measured values: US20250000936A1, “TREATMENT OF GEOGRAPHIC ATROPHY” (Apellis Pharmaceuticals, Inc., priority 2021, published 2025)

Experiments:
[1] = system: patients with geographic atrophy (GA) secondary to age-related macular degeneration (AMD); assay: OAKS Phase 3 study: GA lesion growth in study eye by fundus autofluorescence; assay type: in vivo, human
Description: This Example describes 12-month results from two Phase 3 multi-center, randomized, double-masked, sham-controlled studies (“DERBY” and “OAKS”) to compare the efficacy and safety of intravitreal APL-2 (pegcetacoplan, also referred to as “Study Drug” in this Example) therapy with sham injections in patients with geographic atrophy (GA) secondary to age-related macular degeneration (AMD).
To participate in the studies, subjects must have been diagnosed with GA of the macula secondary to AMD in the study eye. At screening, male and female subjects were required to fulfill all of the following inclusion criteria to be eligible for participation in the study. If both eyes met the inclusion criteria, the eye with the worst normal luminance visual acuity at the screening visit was designated as the study eye. If both eyes had the same visual acuity, the right eye was selected as the study eye. Ocular-specific inclusion criteria applied to the study eye only, unless otherwise specified.
The design of the DERBY and OAKS studies are schematically depicted in FIG. 2. […] As part of the screening process, the reading center evaluated FAF, OCT, Digital Color Fundus Photograph (DCFP), Near Infrared Reflectance (NIR), and fluorescein angiography (FA) to provide an objective assessment of subject eligibility. […]
Subjects were analyzed in the treatment arm assigned at randomization. […]

[2] = system: patients with geographic atrophy (GA) secondary to age-related macular degeneration (AMD); assay: as above; assay type: in vivo, human; conditions: for reduction in GA lesion growth from baseline compared to sham: over 24 months; for reduction in lesion growth in the study eye versus the untreated study eye, after adjusting for sham / reduction in lesion growth in the study eye versus the untreated study eye: bilateral GA; for reduction in lesion growth in the study eye versus the untreated study eye, after adjusting for sham / reduction in lesion growth in the study eye versus the untreated study eye / percentage reduction versus sham pooled: 18 months
[3] = system: patients with geographic atrophy (GA) secondary to age-related macular degeneration (AMD); assay: DERBY and OAKS combined: safety; conditions: for CNV type on FA at eAMD study visit: Active leakage with low likelihood of CNV / CNV type on FA at eAMD study visit: Classic / CNV type on FA at eAMD study visit: Classic + occult / CNV type on FA at eAMD study visit: Occult / investigator-reported events of eAMD, double-layer sign (DLS) present in the study eye / investigator-reported events of eAMD, CNV present in the fellow eye / investigator-reported events of eAMD, CNV absent in the fellow eye / investigator-reported events of eAMD, double-layer sign (DLS) absent in the study eye: through month 18; for Investigator-determined new-onset eAMD in fellow eyes: through 18 months; for combined rate of new-onset exudations: month 24
Description: All randomized subjects returned every month to the clinical site for assessments and additional pegcetacoplan or sham injections according to their randomization scheme until Month 12. From Month 12 onwards, subjects return to the clinical site based on their randomized treatment schedule (monthly or EOM) and follow the treatment regimen and assessments outlined in the Visit Schedule until Month 24. Safety was assessed throughout the study by a number of evaluations including: monitoring of AEs, preinjection and postinjection monitoring, blood and urine samples collected, physical examination, vital signs, and follow-up phone calls. Blood samples were also be collected for anti-therapeutic antibodies, genotyping, and clinical repository (if the subject consented to this portion).
The Safety set consisted of all subjects randomized who received at least one injection of pegcetacoplan or sham. Subjects were analyzed according to the actual treatment received. […] This population was used for all safety analyses.

[4] = post-hoc quartiles of GA lesion growth over 18 months (FIG. 27)
[5] = combined, PEOM (every other month), N=21 events
[6] = combined, PM (monthly), N=26 events
[7] = combined, between months 18 and 24

## Poly(oxy-1,2-ethanediyl), α-hydro-ω-hydroxy-, 15,15′-diester with N-acetyl-L-isoleucyl-L-cysteinyl-L-valyl-1-methyl-L-tryptophyl-L-glutaminyl-L-α-aspartyl-L-tryptophylglycyl-L-alanyl-L-histidyl-L-arginyl-L-cysteinyl-L-threonyl-2-[2-(2-aminoethoxy) ethoxy]acetyl-N^6-carboxy-L-lysinamide cyclic (2->12)-(disulfide) [pegcetacoplan]
[1]; distance ≤250 microns, every other month, p=0.0008
  reduction in GA lesion growth versus sham: 19%
[1]; lesion distance to foveal center point >250 microns, monthly, p=0.0012
  reduction in GA lesion growth versus sham: 30%
[2]; EOM, months 18-24, p=0.0007
  reduction of GA lesion growth versus sham: 25%
[2]; EOM, p 0.0002 nominal
  reduction in GA lesion growth from baseline compared to sham: 18%
[2]; every other month
  reduction in lesion growth in the study eye versus the untreated study eye, after adjusting for sham: 15%
[2]; every other month, p=0.1274
  reduction in lesion growth in the study eye versus the untreated study eye: 7%
[2]; monthly
  reduction in lesion growth in the study eye versus the untreated study eye, after adjusting for sham: 26%
[2]; monthly, p<0.0001
  reduction in lesion growth in the study eye versus the untreated study eye: 19%
[2]; distance >250 microns, every other month, p=0.1203
  reduction in GA lesion growth versus sham: 15%
[2]; distance ≤250 microns, monthly, p=0.0002
  reduction in GA lesion growth versus sham: 22%
[2]; every other month, >50 microns, p=0.0430
  percentage reduction versus sham pooled: 17%
[2]; every other month, >100 microns, p=0.0338
  percentage reduction versus sham pooled: 18%
[2]; every other month, >150 microns, p=0.0575
  percentage reduction versus sham pooled: 17%
[2]; every other month, >200 microns, p=0.1002
  percentage reduction versus sham pooled: 15%
[2]; every other month, month 12, p=0.0052
  reduction in GA lesion growth vs pooled sham: 16%
[2]; every other month, month 18, p 0.0422
  reduction in extrafoveal GA lesion growth vs pooled sham: 17%
[2]; every other month, month 18, p=0.0002
  reduction in GA lesion growth, covariate-adjusted post-hoc analysis: 18%
[2]; every other month, month 18, p=0.0008
  reduction in foveal GA lesion growth, covariate-adjusted: 19%
[2]; every other month, month 18, p=0.0018 nominal
  reduction in GA lesion growth vs pooled sham: 16%
[2]; every other month, month 18, p=0.0020
  reduction in foveal GA lesion growth vs pooled sham: 19%
[2]; every other month, month 18, p=0.0673
  reduction in extrafoveal GA lesion growth, covariate-adjusted: 15%
[2]; monthly, >100 microns, p<0.0001
  percentage reduction versus sham pooled: 34%
[2]; monthly, >150 microns, p<0.0001
  percentage reduction versus sham pooled: 34%
[2]; monthly, >200 microns, p<0.0001
  percentage reduction versus sham pooled: 34%
[2]; monthly, distance to foveal center point >50 microns, p<0.0001
  percentage reduction versus sham pooled: 33%
[2]; monthly, month 12, p=0.0003
  reduction in GA lesion growth vs pooled sham: 22%
[2]; monthly, month 18, p<0.0001
  reduction in GA lesion growth, covariate-adjusted post-hoc analysis: 26%
  reduction in extrafoveal GA lesion growth vs pooled sham: 33%
  reduction in extrafoveal GA lesion growth, covariate-adjusted: 33%
[2]; monthly, month 18, p<0.0001 nominal
  reduction in GA lesion growth vs pooled sham: 22%
[2]; monthly, month 18, p=0.0044
  reduction in foveal GA lesion growth, covariate-adjusted: 19%
[2]; monthly, month 18, p=0.0105
  reduction in foveal GA lesion growth vs pooled sham: 18%
[2]; monthly, months 18-24, p=0.0080
  reduction of GA lesion growth versus sham: 24%
[2]; monthly, p<0.0001 nominal
  reduction in GA lesion growth from baseline compared to sham: 22%
[2]; [4]
  decrease of patients in Q4 (fast progressors), relative to sham: 43%
  increase of patients in Q1 (slow progressors), relative to sham: 83%
[3]; both Phase 3 studies, 12 months
  tolerability: well tolerated
[3]; combined, 12 months
  events of retinal vasculitis or retinal vein occlusion: No events
[3]; combined, 12 months, thirteen events
  intraocular inflammation events: 0.21 % per injection
[3]; [5]
  CNV type on FA at eAMD study visit: Active leakage with low likelihood of CNV: 0 n (%)
  CNV type on FA at eAMD study visit: Classic: 1 (4,8%) n (%)
  CNV type on FA at eAMD study visit: Classic + occult: 0 n (%)
  CNV type on FA at eAMD study visit: Occult: 20 (95.2%) n (%)
[3]; combined, PEOM (every other month), 339 patients without baseline fellow eye CNV
  Investigator-determined new-onset eAMD in fellow eyes: 13 (3.8%) n (%)
[3]; [6]
  CNV type on FA at eAMD study visit: Active leakage with low likelihood of CNV: 3 (11.5%) n (%)
  CNV type on FA at eAMD study visit: Classic: 1 (3.8%) n (%)
  CNV type on FA at eAMD study visit: Classic + occult: 0 n (%)
  CNV type on FA at eAMD study visit: Occult: 22 (84.6%) n (%)
[3]; combined, PM (monthly), 335 patients without baseline fellow eye CNV
  Investigator-determined new-onset eAMD in fellow eyes: 12 (3.6%) n (%)
[3]; [7]
  cases of endophthalmitis: No cases
  serious adverse events of ischemic optic neuropathy: no serious adverse events
[3]; combined, every other month, 12 months
  pooled rate of new-onset exudations (investigator-determined eAMD), patients: 4.1%
[3]; combined, every other month, month 18, 26/420 patients
  rate of new-onset exudations: 6.2%
[3]; combined, every other month
  combined rate of new-onset exudations: 6.7%
[3]; combined, every other month, 6/73 patients
  investigator-reported events of eAMD, double-layer sign (DLS) present in the study eye: 8.2%
[3]; combined, every other month, 8/81 patients
  investigator-reported events of eAMD, CNV present in the fellow eye: 9.9%
[3]; combined, every other month, 18/338 patients
  investigator-reported events of eAMD, CNV absent in the fellow eye: 5.3%
[3]; combined, every other month, 20/345 patients
  investigator-reported events of eAMD, double-layer sign (DLS) absent in the study eye: 5.8%
[3]; combined, month 18
  events of retinal vasculitis or retinal vein occlusion: No events
  rate of intraocular inflammation: 0.23 % per injection
[3]; combined, monthly, 12 months
  pooled rate of new-onset exudations (investigator-determined eAMD), patients: 6.0%
[3]; combined, monthly, month 18, 40/419 patients
  rate of new-onset exudations: 9.5%
[3]; combined, monthly
  combined rate of new-onset exudations: 11.9%
[3]; combined, monthly, 8/79 patients
  investigator-reported events of eAMD, double-layer sign (DLS) present in the study eye: 10.1%
[3]; combined, monthly, 8/84 patients
  investigator-reported events of eAMD, CNV present in the fellow eye: 9.5%
[3]; combined, monthly, 32/335 patients
  investigator-reported events of eAMD, CNV absent in the fellow eye: 9.6%
[3]; combined, monthly, 32/336 patients
  investigator-reported events of eAMD, double-layer sign (DLS) absent in the study eye: 9.5%
[3]; combined, over 24 months
  events of occlusive vasculitis or retinitis: No events
  rate of intraocular inflammation: 0.24 % per injection
